Tests used:
[1] = cited from earlier work
CYP2D6 = details: cited from earlier work
[2] = Population pharmacokinetic analysis of upadacitinib plasma concentrations; assay type: in vivo, human; details: for Cmax: C max; for Cmax / concentration at 24 h / C avg: model-estimated, 15 mg once daily, median (5th to 95th percentile); for concentration at 24 h: C trough
cytochrome P450 (CYP) 3A = details: cited from earlier work
[3] = human, plasma, oral, 15 mg, patients with RA in phase III trials (N = 1592)
[4] = human, plasma, oral, 15 mg, patients with nr-axSpA (N = 71)

Vd/F ([2]; human, plasma, oral, 15 mg): 171 L
Cmax [2, 3]: 41.1 ng/mL
Cmax [2, 4]: 37.3 ng/mL
concentration at 24 h ([2]; human, plasma, oral, 15 mg, patients with AS (N = 173)): 3.71 ng/mL
concentration at 24 h [2, 3]: 3.72 ng/mL
concentration at 24 h [2, 4]: 4.58 ng/mL
C avg ([2]; patients with AS (N = 173)): 14.5 (9.78, 25.9) ng/mL
C avg ([2]; patients with RA in phase III trials (N = 1592)): 14.9 (9.74, 29.2) ng/mL
C avg ([2]; patients with nr-axSpA (N = 71)): 14.8 (10.5, 25.5) ng/mL
Compound: CC[C@@H]1CN(C(=O)NCC(F)(F)F)C[C@@H]1c1cnc2cnc3[nH]ccc3n12 [upadacitinib]
dose linearity of pharmacokinetics ([1]; 7.5 to 45 mg q.d. dose range): linear pharmacokinetics
apparent volume of distribution of the central compartment (population estimate) ([1]; previously developed RA model): 156 L
substrate for CYP2D6 (CYP2D6): to a minor extent
substrate for cytochrome P450 (CYP) 3A (cytochrome P450 (CYP) 3A): substrate
